Results on 3 molecules are retold here after patent US20080293699A1, “Inhibitors of thapsigargin-induced cell death” (priority 2007, published 2008).

One assay relates to phospho-c-Jun. The experiment in a line: Immunoblotting of thapsigargin-induced c-Jun phosphorylation in CSM14.1 cells. The class given is cell-based, rat. The note with it: immunoblotting with phospho-specific antibody, 10 μM, 25 μM hits. From the text:
After confirming the pathway selectivity of compounds, additional downstream assays can be performed to map the specific signal transduction pathway inhibited by the compounds. In this regard, various antibody reagents are commercially available for assessing the status of the three major pathways known to be activated by ER stress: (1) PERK, (2) Ire1, and (3) ATF6 (Xu et al., J. Clinical Invest., 115:2656-2664, 2005). Immunoblotting experiments can be performed to assess the expression or phosphorylation (using phospho-specific antibodies) of marker proteins in these pathways. […] CSM 14.1 cells were cultured with DMSO or with 25 μM of hit compounds for two hours, followed by treatment of thapsigargin (15 μM). Cell lysates were prepared and analyzed by SDS-PAGE/immunoblotting using antibodies specific for phospho-c-Jun, phospho-eIF2α, phospho-p38 MAPK, and tubulin (a loading control). CSM14.1 cells were cultured with either DMSO or one of the active compounds at 1, 5, and 10 μM, followed two hours later by 15 μM TG. After two hrs, cell lysates were prepared, normalized for protein content, and either analyzed by SDS-PAGE/immunoblotting using anti-p38-MAPK pan-reactive antibody or phospho-specific antibody with ECL-based detection, followed by densitometry analysis of x-ray films, normalizing phosphor-p38 MAPK relative to total p38 MAPK, or analyzed using a meso-scale instrument from MSD and a procedure in which total p38 MAPK is captured on plates, and the relative amounts of phosphorylated protein were determined using phospho-specific antibody (MSD catalog #K15112D1). […] Suppression of p38 MAPK and c-Jun phosphorylation was dose-dependent, and could not be explained by a decline in total levels of these proteins. […] Proteolytic processing of ATF6 was also not inhibited by our hit compounds. […] Screens of other libraries (such as the NIH compound collection) may yield cytoprotective compounds with different mechanisms.
1) CSM14.1 cells were plated at a density of 2×10^5 cells/well at 6 well dish (Greiner Bio one) in DMEM containing 2% FBS and antibiotics.
2) After overnight incubation, cells were treated by DMSO (0.5%) or compounds (25 μM) for two hours, followed by TG (15 uM) treatment.
3) After two hours, cells were lyzed in 250 uL of lysis buffer and subjected to protein concentration decision, and to SDS PAGE/Western blotting using antibodies specific for phospho p38 MAPK (Cell signaling 9211), p38 MAPK (Santa Cruz-C20), phospho c-Jun (Cell signaling 9164), c-Jun (Santa Cruz-SC 1694), phospho eIF2α (Cell signaling 3597) and α-tubulin.
CSM 14.1 cells were cultured with DMSO or with 25 μM of hit compounds for two hours followed by treatment with thapsigargin (15 μM). Cell lysates were prepared and analyzed by SDS-PAGE/immunoblotting using antibodies specific for: c-Jun, phosphor-c-Jun (ser 73), eIF2a, phosphor-eIF2a (ser 51), p38 MAPK, phosphor-p38 MAPK (Thr180/Tyr182), ATF-6, CHOP and tubulin (loading control). ER stress-induced activation of C-Jun and p38 MAPK is suppressed by the 11 hit compounds.
CSM cells were treated with two compounds at increasing doses. Pre-incubation time, thapsigargin treatment, cell extract preparation and immunoblotting protocols were as described previously.

In assay [1] the test system is ASK1 binding to 14-3-3 protein. The experiment in a line: Co-immunoprecipitation of ASK1 with 14-3-3 in transfected 293T cells. The class given is cell-based. The note with it: thapsigargin-stimulated transfected 293T; 100 μM where stated. On the procedure: Phosphorylation of ASK1 at various sites was inspected. 293T cells were transfected with pcDNA-ASK1-HA. One day later, cells were incubated with DMSO (0.4%) or 100 μM compound 6239507 (#1) for two hours. Cell extracts were prepared using lysis buffer and were subjected to immunoblotting using anti-phospho ASK1 antibodies or anti HA antibody as indicated (A). The relative density of each phosphorylated ASK band was calculated by imageJ software (B). In (C), compounds from (A) were compared in activity against thapsigargin-induced cell death. […] (D) 293T cells were transfected with pcDNA-ASK1-HA and pEBG-GST-14-3-3. One day later cells were incubated with DMSO (0.4%) or 100 μM of the indicated compound for two hours. Then cells were treated with thapsigargin (20 μM) for the indicated time. Cell extracts were prepared using lysis buffer, and 14-3-3 proteins were immunoprecipitated with […] sepharose beads. ASK1 protein binding with 14-3-3 was visualized by immunoblotting using anti-HA antibody. Anti-phospho ASK1 (ser967) antibody was used to detect phosphorylation of ASK1 at each time point. […]
The ser 967 site of ASK1 is known to down-regulate ASK1 activity by phosphorylation (Goldman et al., J. Biol. Chem. 279:10442-10449, 2004) via 14-3-3 binding. […] The relative density of each phosphorylated ASK band was calculated by imageJ software. […]

“Also recorded” adds a separate entry of the source.

With `COc1ccc(C2CC(=O)C3=C(C2)Nc2ccccc2NC3c2ccccc2C(F)(F)F)cc1OC` (stereo not shown) [Compound 6237735], the “Thapsigargin-induced phosphorylation of c-Jun” value with phospho-c-Jun is given as “dose-dependent decrease”.
Consider `CCN(CC)c1ccc(C2Nc3ccccc3NC3=C2C(=O)CC(c2ccccc2)C3)cc1` (stereo not shown) [Compound 5962123, 6-(4-diethylaminophenyl)-9-phenyl-5,6,8,9,10,11-hexahydrobenzo[c][1,5]benzodiazepin-7-one], for which the “Thapsigargin-induced phosphorylation of c-Jun” value in the assay on phospho-c-Jun is reported as “inhibits”. Further, the “Binding of ASK1 to 14-3-3 protein” value in assay [1] was “increased 14-3-3 binding to ASK1; also recorded: increases binding”.
For the molecule `COc1ccc(C2CC(=O)C3=C(C2)Nc2ccccc2NC3c2cccc(Oc3ccccc3)c2)cc1OC` (stereo not shown) [Compound 6239507], the “Binding of ASK1 to 14-3-3 protein” value in assay [1] is recorded as “inhibits dissociation of 14-3-3 from ASK1”.
